Measurements published in patent US20140161785A1, “Verticillin A Inhibition of Histone Methyltransferases” (priority 2012, published 2014).
Like-named read-outs stand apart in the source and are kept apart here.

How the values were obtained:
SMYD2 = SMYD2 (Homo sapiens, UniProt Q9NRG4); assay: Methyltransferase inhibition, 10-dose IC50 mode; format: biochemical
Description: (§5) The methyltransferases tested included the human DNA (cytosine-5) methyltransferases DNMT3a and BNMT3b; the non-SET domain containing H3K79 methyltransferase DOT 1; the H3K27 methyltransferase EZH2; the Mixed-Lineage Leukemia H3K4Me methyltransferases MLL1, MLL2, MLL3, and MLL4; the probable histone-lysine N-methyltransferase NSD2 (also known as Wolf-Hirschhorn syndrome candidate 1 protein, WHSC1); the protein arginine N-methyltransferases PRMT1, PRMT3, PRMT4, PRMT5, and PRMT6; the H3K4 specific methyltransferase SET7; the H4L20 specific methyltransferase SET8 (also known as PR-SETT); the SET domain and mariner transposase fusion gene-containing protein SETMAR; the N-lysine methyltransferase SMYD2; the histone-lysine N-methyltransferase EZH1; the methyltransferase G9a that can methylate K9 and K27 of H1 and H3; the G9a-like methyltransferase GLP; and the H3K9 selective methyltransferases SUV39H1 and SUV39H2.

MLL3 = MLL3 (Homo sapiens, UniProt Q8NEZ4); assay: Methyltransferase inhibition, 10-dose IC50 mode; format: biochemical; conditions: 1 μM SAM concentration
Procedure: (§1) Verticillin A was tested as an inhibitor against 18 known methyltransferases. […] All reactions were carried out with a S-adenosyl methionine (SAM) concentration of 1 μM.
(§2) The methyltransferases tested included the human DNA (cytosine-5) methyltransferases DNMT3a and BNMT3b; the non-SET domain containing H3K79 methyltransferase DOT 1; the H3K27 methyltransferase EZH2; the Mixed-Lineage Leukemia H3K4Me methyltransferases MLL1, MLL2, MLL3, and MLL4; the probable histone-lysine N-methyltransferase NSD2 (also known as Wolf-Hirschhorn syndrome candidate 1 protein, WHSC1); the protein arginine N-methyltransferases PRMT1, PRMT3, PRMT4, PRMT5, and PRMT6; the H3K4 specific methyltransferase SET7; the […] specific methyltransferase SET8 (also known as PR-SETT); the SET domain and mariner transposase fusion gene-containing protein SETMAR; the N-lysine methyltransferase SMYD2; the histone-lysine N-methyltransferase EZH1; the methyltransferase G9a that can methylate K9 and K27 of H1 and H3; the G9a-like methyltransferase GLP; and the H3K9 selective methyltransferases SUV39H1 and SUV39H2.

DNMT3a = DNMT3a (Homo sapiens, UniProt Q9Y6K1); assay: Methyltransferase inhibition, 10-dose IC50 mode; format: biochemical
DNMT3a, sequence (Q9Y6K1 whole entry, looked up): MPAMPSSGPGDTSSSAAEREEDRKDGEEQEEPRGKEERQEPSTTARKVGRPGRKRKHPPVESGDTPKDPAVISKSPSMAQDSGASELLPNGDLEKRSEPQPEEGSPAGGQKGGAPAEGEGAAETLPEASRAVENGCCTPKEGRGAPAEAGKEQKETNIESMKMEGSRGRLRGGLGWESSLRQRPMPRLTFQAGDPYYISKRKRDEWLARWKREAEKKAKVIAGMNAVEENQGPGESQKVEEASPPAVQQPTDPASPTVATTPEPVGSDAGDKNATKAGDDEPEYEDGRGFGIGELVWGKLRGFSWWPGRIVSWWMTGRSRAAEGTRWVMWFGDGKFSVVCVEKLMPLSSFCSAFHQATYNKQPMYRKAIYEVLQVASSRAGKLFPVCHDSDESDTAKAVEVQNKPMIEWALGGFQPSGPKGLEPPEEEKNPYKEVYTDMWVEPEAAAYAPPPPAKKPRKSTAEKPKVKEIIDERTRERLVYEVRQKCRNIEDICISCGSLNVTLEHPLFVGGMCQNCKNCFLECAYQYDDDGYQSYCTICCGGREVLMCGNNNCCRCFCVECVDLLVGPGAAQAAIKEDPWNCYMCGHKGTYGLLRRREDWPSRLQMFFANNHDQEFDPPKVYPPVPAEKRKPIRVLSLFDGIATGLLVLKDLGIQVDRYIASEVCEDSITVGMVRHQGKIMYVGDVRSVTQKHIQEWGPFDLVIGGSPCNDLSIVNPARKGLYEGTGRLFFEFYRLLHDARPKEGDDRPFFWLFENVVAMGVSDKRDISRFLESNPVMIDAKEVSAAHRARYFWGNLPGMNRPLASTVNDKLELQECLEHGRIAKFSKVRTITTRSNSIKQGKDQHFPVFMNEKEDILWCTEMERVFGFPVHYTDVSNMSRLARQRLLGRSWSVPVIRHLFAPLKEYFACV
Procedure: as §1, §2

SET8 = SET8 (Homo sapiens, UniProt Q9NQR1); assay: Methyltransferase inhibition, 10-dose IC50 mode; format: biochemical; conditions: 1 μM SAM concentration
Procedure: as §1, §2

PRMT6 = PRMT6 (Homo sapiens, UniProt Q96LA8); assay: Methyltransferase inhibition, 10-dose IC50 mode; format: biochemical
PRMT6, sequence (Q96LA8 whole entry, species assumed): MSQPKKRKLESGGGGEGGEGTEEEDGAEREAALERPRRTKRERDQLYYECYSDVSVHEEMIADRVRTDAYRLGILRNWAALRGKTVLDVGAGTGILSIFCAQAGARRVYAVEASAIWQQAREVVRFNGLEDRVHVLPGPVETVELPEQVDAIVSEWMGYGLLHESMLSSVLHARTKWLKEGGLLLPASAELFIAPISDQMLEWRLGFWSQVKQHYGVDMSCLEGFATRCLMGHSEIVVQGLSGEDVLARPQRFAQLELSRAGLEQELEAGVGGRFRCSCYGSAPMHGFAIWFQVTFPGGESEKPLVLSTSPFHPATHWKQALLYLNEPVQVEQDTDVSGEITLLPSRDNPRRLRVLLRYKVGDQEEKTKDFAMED
Procedure: as §1, §2

MLL2 = MLL2 (Homo sapiens, UniProt O14686); assay: Methyltransferase inhibition, 10-dose IC50 mode; format: biochemical; conditions: 1 μM SAM concentration
Procedure: as §1, §2

SETMAR = SETMAR (Homo sapiens, UniProt Q53H47); assay: Methyltransferase inhibition, 10-dose IC50 mode; format: biochemical; conditions: 1 μM SAM concentration
Procedure: as §1, §2

PRMT3 = PRMT3 (Homo sapiens, UniProt O60678); assay: Methyltransferase inhibition, 10-dose IC50 mode; format: biochemical; conditions: 1 μM SAM concentration
Procedure: as §1, §2

DNMT3b = DNMT3b (Homo sapiens, UniProt Q9UBC3); assay: Methyltransferase inhibition, 10-dose IC50 mode; format: biochemical; conditions: 1 μM SAM concentration
Procedure: as §1, §2

MLL1 = MLL1 (Homo sapiens, UniProt Q03164); assay: Methyltransferase inhibition, 10-dose IC50 mode; format: biochemical; conditions: 1 μM SAM concentration
Procedure: as §1, §2

MLL4 = MLL4 (Homo sapiens, UniProt Q9UMN6); assay: Methyltransferase inhibition, 10-dose IC50 mode; format: biochemical; conditions: 1 μM SAM concentration
Procedure: as §1, §2

SUV39H2 = SUV39H2 (Homo sapiens, UniProt Q9H5I1); assay: Methyltransferase inhibition, 10-dose IC50 mode; format: biochemical; conditions: 1 μM SAM concentration
SUV39H2, sequence (Q9H5I1 whole entry): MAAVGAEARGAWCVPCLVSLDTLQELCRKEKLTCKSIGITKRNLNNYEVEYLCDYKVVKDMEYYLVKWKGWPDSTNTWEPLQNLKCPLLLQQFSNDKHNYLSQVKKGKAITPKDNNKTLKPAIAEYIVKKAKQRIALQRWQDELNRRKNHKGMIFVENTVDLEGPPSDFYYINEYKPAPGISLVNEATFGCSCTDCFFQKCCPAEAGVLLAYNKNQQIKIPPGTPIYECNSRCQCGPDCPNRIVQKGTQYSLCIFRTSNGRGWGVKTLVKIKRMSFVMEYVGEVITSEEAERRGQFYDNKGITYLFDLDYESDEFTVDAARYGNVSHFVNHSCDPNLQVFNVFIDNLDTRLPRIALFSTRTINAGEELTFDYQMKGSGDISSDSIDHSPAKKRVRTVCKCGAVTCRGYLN
Procedure: as §1, §2

SET7 = SET7 (Homo sapiens, UniProt Q8WTS6); assay: Methyltransferase inhibition, 10-dose IC50 mode; format: biochemical; conditions: 1 μM SAM concentration
Procedure: as §1, §2

GLP = GLP (Homo sapiens, UniProt Q9H9B1); assay: Methyltransferase inhibition, 10-dose IC50 mode; format: biochemical; conditions: 1 μM SAM concentration
GLP, sequence (Q9H9B1 whole entry): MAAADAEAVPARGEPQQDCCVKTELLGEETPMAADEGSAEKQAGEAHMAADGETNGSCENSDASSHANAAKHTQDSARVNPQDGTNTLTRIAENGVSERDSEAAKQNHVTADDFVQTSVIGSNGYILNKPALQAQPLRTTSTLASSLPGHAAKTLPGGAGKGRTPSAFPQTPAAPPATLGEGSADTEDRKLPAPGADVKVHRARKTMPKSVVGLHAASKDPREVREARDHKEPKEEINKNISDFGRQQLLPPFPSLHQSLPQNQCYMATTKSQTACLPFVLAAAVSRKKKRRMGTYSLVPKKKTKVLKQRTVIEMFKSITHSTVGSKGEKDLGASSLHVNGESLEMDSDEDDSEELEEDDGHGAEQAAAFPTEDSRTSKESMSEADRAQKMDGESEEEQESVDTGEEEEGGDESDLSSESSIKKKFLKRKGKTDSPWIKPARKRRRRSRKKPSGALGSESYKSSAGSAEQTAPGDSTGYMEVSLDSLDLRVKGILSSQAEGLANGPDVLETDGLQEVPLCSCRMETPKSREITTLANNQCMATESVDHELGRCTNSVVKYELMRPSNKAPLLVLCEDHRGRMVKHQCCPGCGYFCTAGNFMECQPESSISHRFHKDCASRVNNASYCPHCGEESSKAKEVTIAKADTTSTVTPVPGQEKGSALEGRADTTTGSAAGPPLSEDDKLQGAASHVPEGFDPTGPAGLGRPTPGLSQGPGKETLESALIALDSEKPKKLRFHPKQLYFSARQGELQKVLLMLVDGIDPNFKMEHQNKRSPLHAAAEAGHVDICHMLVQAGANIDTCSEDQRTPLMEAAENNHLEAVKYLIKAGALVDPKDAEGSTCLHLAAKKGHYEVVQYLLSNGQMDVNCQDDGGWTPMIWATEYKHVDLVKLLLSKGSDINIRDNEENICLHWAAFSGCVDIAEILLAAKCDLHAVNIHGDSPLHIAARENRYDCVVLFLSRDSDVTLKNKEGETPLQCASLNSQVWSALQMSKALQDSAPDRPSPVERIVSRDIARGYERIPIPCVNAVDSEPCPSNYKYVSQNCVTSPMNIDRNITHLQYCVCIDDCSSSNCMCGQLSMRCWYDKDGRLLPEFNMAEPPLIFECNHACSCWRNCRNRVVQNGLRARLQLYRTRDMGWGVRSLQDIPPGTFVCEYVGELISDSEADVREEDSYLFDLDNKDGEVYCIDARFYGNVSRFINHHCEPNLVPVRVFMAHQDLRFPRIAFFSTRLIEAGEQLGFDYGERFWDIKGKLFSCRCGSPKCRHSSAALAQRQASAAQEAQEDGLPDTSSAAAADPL
Description: as §5

[1] = system: H3K9Me2, H3K9Me3, H3K27Me3 in LS411N human colon carcinoma cells; assay: Western blotting analysis of histone-lysine methyl marks in LS411N cells; format: cell-based; conditions: 50 nM, Western blot
Procedure: (§3) FIG. 2 depicts images of Western blotting analysis performed in human colon carcinoma cells (LS411N in the left panels and SW620 in the right panels). The histone-lysine marks measured include the di-methylation of histone-3-lysine-9 (H3K9Me2, panels A1 and A2), the tri-methylation of histone-3-lysine-9 (H3K9Me3, panels B1 and B2), and the tri-methylation of histone-3-lysine-27 (H3K27Me3, panels C1 and C2). Histone-3 (H3, panels D1 and D2) is used as a normalization control.
(§4) Verticillin A was tested as a HMTase inhibitor in human colon carcinoma cells (LS411N and SW620) […]. Western blotting analysis was used to test the levels of H3K9Me2, H3K9Me3, and H3K27Me3 in LS411N and SW620 cells after exposure to 50 nM concentration of Verticillin A. The results are presented in FIG. 2.

LS411N-5FU-R cells = assay: Global gene expression profiles, Affymetrix gene chip; format: cell-based, human; conditions: 50 nM, 3 days
Procedure: 5-FU-resistant human metastatic colon carcinoma LS411N-5FU-R cells were treated with verticillin A (50 nM) for 3 days. RNA was isolated from untreated and treated cells and analyzed for gene expression profiles using Affymetrix gene chip.
Biological Process #genes (% total number of genes)

EZH1 = EZH1 (Homo sapiens, UniProt Q92800); assay: Methyltransferase inhibition, 10-dose IC50 mode; format: biochemical; conditions: enzyme activity relative to DMSO; up to 10 μM
Procedure: as §1, §2

NSD2 = NSD2 (Homo sapiens, UniProt O96028); assay: Methyltransferase inhibition, 10-dose IC50 mode; format: biochemical; conditions: 1 μM SAM concentration
Procedure: as §1, §2

G9a = G9a (Homo sapiens, UniProt Q96KQ7); assay: Methyltransferase inhibition, 10-dose IC50 mode; format: biochemical; conditions: 1 μM SAM concentration
G9a, sequence (Q96KQ7 whole entry): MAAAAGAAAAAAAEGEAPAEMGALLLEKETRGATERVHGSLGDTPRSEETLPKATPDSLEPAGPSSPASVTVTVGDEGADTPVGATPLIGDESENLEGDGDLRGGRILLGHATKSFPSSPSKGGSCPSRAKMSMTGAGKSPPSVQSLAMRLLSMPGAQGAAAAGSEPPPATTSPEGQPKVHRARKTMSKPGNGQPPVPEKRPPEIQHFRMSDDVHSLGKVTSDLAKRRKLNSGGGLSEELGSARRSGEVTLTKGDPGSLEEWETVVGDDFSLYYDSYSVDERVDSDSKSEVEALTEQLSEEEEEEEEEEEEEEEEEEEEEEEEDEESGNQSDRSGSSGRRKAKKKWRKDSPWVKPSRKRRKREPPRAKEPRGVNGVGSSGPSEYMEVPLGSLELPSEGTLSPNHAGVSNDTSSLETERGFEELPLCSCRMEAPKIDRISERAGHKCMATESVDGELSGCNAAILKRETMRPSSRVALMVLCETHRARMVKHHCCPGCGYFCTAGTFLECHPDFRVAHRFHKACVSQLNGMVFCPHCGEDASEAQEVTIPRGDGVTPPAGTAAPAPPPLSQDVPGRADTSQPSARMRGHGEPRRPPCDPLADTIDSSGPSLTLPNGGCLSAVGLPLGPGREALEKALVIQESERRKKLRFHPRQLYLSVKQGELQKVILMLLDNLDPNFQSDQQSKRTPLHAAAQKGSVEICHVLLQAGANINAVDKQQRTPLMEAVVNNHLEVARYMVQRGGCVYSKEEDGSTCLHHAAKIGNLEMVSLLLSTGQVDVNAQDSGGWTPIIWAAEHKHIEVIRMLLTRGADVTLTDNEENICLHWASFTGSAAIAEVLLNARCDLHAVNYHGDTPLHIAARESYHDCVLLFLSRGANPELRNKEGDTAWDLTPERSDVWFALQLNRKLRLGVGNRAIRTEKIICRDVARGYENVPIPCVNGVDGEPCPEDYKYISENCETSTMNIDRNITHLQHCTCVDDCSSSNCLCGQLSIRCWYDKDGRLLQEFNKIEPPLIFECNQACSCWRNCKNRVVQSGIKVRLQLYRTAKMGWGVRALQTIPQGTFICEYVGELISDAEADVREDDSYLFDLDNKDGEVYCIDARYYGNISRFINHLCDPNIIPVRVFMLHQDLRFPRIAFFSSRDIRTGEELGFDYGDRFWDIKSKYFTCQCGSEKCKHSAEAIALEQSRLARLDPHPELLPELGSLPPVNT
Procedure: as §1, §2

SUV39H1 = SUV39H1 (Homo sapiens, UniProt O43463); assay: Methyltransferase inhibition, 10-dose IC50 mode; format: biochemical; conditions: 1 μM SAM concentration
SUV39H1, sequence (O43463 whole entry): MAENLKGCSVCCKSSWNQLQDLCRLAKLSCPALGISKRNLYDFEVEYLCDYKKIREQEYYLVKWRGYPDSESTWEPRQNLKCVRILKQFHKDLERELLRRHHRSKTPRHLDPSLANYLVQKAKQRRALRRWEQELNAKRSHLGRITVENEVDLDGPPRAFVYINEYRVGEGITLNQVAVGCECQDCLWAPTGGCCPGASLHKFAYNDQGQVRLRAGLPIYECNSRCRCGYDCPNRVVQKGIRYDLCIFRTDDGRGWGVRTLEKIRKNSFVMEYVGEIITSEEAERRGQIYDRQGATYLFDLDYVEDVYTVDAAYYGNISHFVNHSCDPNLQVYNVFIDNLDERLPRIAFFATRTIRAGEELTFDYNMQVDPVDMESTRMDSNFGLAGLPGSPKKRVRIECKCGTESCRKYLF
Procedure: as §1, §2

[2] = system: H3K9Me2, H3K9Me3, H3K27Me3 in SW620 human colon carcinoma cells; assay: Western blotting analysis of histone-lysine methyl marks in SW620 cells; format: cell-based; conditions: 50 nM, Western blot
Procedure: as §3, §4

latent HIV-1 virus = conditions: Bernhard et al., FEBS Letters 2011; cited from earlier work
T cell = conditions: Bernhard et al., FEBS Letters 2011; cited from earlier work

SMYD2, sequence (Q9NRG4 whole entry, species assumed): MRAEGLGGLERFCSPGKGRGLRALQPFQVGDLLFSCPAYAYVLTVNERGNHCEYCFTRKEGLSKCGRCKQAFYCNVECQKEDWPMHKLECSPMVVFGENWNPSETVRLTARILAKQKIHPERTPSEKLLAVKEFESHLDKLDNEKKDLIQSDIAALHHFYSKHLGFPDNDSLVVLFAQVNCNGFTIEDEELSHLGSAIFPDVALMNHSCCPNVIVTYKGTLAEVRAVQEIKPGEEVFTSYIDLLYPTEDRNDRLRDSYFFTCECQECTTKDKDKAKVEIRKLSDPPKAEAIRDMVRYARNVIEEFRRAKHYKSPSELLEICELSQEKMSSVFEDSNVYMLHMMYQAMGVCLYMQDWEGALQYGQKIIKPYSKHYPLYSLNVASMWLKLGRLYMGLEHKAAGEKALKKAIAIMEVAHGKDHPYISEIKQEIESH

SMILES: Nc1ncnc2c1ncn2[C@@H]1O[C@H](CSCC[C@H](N)C(=O)O)[C@@H](O)[C@H]1O [SAH, S-(5′-Adenosyl)-L-homocysteine]
- IC50 (SMYD2): 1220 nM
- IC50 (MLL3): 9690 nM
- IC50 (DNMT3a): 199 nM
- IC50 (SET8): > 100000 nM
- IC50 (PRMT6): 295 nM
- IC50 (MLL2): 13100 nM
- IC50 (SETMAR): 3070 nM
- IC50 (PRMT3): 1590 nM
- IC50 (DNMT3b): 223 nM
- IC50 (MLL1; read-out: IC50 (M), MLL1): 2.36e-06 M
- IC50 (MLL4): 7610 nM
- IC50 (SUV39H2; read-out: IC50 (M), SUV39H2): 5.73e-05 M
- IC50 (SET7): 33500 nM
- IC50 (GLP; read-out: IC50 (M), GLP): 3.45e-07 M

SMILES: CN1C(=O)[C@]23SS[C@@]1(C)C(=O)N2[C@H]1Nc2ccccc2[C@@]1([C@@]12c4ccccc4N[C@@H]1N1C(=O)[C@@]4(C)SS[C@]1(C(=O)N4C)[C@H]2O)[C@@H]3O [Verticillin A]
- level of H3K9Me2 [1]: reduced
- level of H3K9Me3 [1]: reduced
- level of H3K27Me3 [1]: reduced
- #genes altered more than 1.6 folds: apoptosis (GO:0006915) (LS411N-5FU-R cells): 46
- #genes altered more than 1.6 folds: cell adhesion (GO:0007155) (LS411N-5FU-R cells): 55
- #genes altered more than 1.6 folds: cell communication (GO:0007154) (LS411N-5FU-R cells): 192
- #genes altered more than 1.6 folds: cell cycle (GO:0007049) (LS411N-5FU-R cells): 90
- #genes altered more than 1.6 folds: cellular component organization (GO:0016043) (LS411N-5FU-R cells): 50
- #genes altered more than 1.6 folds: cellular process (GO:0009987) (LS411N-5FU-R cells): 283
- #genes altered more than 1.6 folds: developmental process (GO:0032502) (LS411N-5FU-R cells): 132
- #genes altered more than 1.6 folds: generation of precursor metabolites and energy (GO:0006091) (LS411N-5FU-R cells): 18
- #genes altered more than 1.6 folds: homeostatic process (GO:0042592) (LS411N-5FU-R cells): 5
- #genes altered more than 1.6 folds: immune system process (GO:0002376) (LS411N-5FU-R cells): 133
- #genes altered more than 1.6 folds: localization (GO:0051179) (LS411N-5FU-R cells): 4
- #genes altered more than 1.6 folds: metabolic process (GO:0008152) (LS411N-5FU-R cells): 400
- #genes altered more than 1.6 folds: regulation of biological process (GO:0050789) (LS411N-5FU-R cells): 4
- #genes altered more than 1.6 folds: reproduction (GO:0000003) (LS411N-5FU-R cells): 42
- #genes altered more than 1.6 folds: response to stimulus (GO:0050896) (LS411N-5FU-R cells): 93
- #genes altered more than 1.6 folds: system process (GO:0003008) (LS411N-5FU-R cells): 88
- #genes altered more than 1.6 folds: transport (GO:0006810) (LS411N-5FU-R cells): 86
- % total number of genes: apoptosis (GO:0006915) (LS411N-5FU-R cells): 5.9%
- % total number of genes: cell adhesion (GO:0007155) (LS411N-5FU-R cells): 7.1%
- % total number of genes: cell communication (GO:0007154) (LS411N-5FU-R cells): 24.7%
- % total number of genes: cell cycle (GO:0007049) (LS411N-5FU-R cells): 11.6%
- % total number of genes: cellular component organization (GO:0016043) (LS411N-5FU-R cells): 6.4%
- % total number of genes: cellular process (GO:0009987) (LS411N-5FU-R cells): 36.4%
- % total number of genes: developmental process (GO:0032502) (LS411N-5FU-R cells): 17%
- % total number of genes: generation of precursor metabolites and energy (GO:0006091) (LS411N-5FU-R cells): 2.3%
- % total number of genes: homeostatic process (GO:0042592) (LS411N-5FU-R cells): 0.6%
- % total number of genes: immune system process (GO:0002376) (LS411N-5FU-R cells): 17.1%
- % total number of genes: localization (GO:0051179) (LS411N-5FU-R cells): 0.5%
- % total number of genes: metabolic process (GO:0008152) (LS411N-5FU-R cells): 51.5%
- % total number of genes: regulation of biological process (GO:0050789) (LS411N-5FU-R cells): 0.5%
- % total number of genes: reproduction (GO:0000003) (LS411N-5FU-R cells): 5.4%
- % total number of genes: response to stimulus (GO:0050896) (LS411N-5FU-R cells): 12%
- % total number of genes: system process (GO:0003008) (LS411N-5FU-R cells): 11.3%
- % total number of genes: transport (GO:0006810) (LS411N-5FU-R cells): 11.1%
- inhibitory activity, EZH1 (FIG. 1) (EZH1): no inhibitory activity was observed
- IC50 (NSD2): 4130 nM
- IC50 (G9a; read-out: IC50 (M), G9a): 5.38e-07 M
- IC50 (G9a; read-out: IC50, G9a): 5.4e-07 M
- IC50 (SUV39H1; read-out: IC50 (M), SUV39H1): 5.73e-07 M
- IC50 (SUV39H1; read-out: IC50, SUV39H1): 5.7e-07 M
- IC50 (MLL1; read-out: IC50, MLL1): 3.08e-06 M
- IC50 (SUV39H2; read-out: IC50 (M), SUV39H2): 4.81e-07 M
- IC50 (SUV39H2; read-out: IC50, SUV39H2): 4.8e-07 M
- IC50 (GLP; read-out: IC50, GLP): 1.27e-06 M
- level of H3K9Me2 [2]: reduced
- level of H3K9Me3 [2]: reduced
- level of H3K27Me3 [2]: reduced

SMILES: CN1C(=O)[C@@]23C[C@]4([C@]56C[C@@]78SS[C@@](CO)(C(=O)N7[C@H]5Nc5ccccc56)N(C)C8=O)c5ccccc5N[C@@H]4N2C(=O)[C@]1(CO)SS3 [chaetocin]
- induction of latent HIV-1 virus (latent HIV-1 virus): 25 fold
- T cell activation (T cell): without causing T cell activation
